These results are taken from patent US20220143024A1, “METHODS OF USING IMIPRIDONES” (Board of Regents, The University of Texas System, priority 2019, published 2022).

Like-named read-outs stand apart in the source and are kept apart here.

The subject of assay [1] is ONC201-resistant (ONC-R) Z138 cells carrying D190A mutant ClpP. Description: Sensitivity of ONC201-resistant Z138 cells. Particulars: Annexin V assay; 72 hours.
Description: (§3) After a 72-h period of incubation at 37° C., 10 μL of Alamar Blue was added to the culture medium and the mixture was incubated for an additional 2 h at 37° C. Cytotoxicity was measured using spectrophotometry of fluorescence at excitation 560 nm & emission 590 nm (SpectraMax M3, Molecular Devices, San Jose, Calif.). […] Annexin V and PI were stained after 72 h incubation. Annexin V- and PI-negative cells were counted as live cells.
The subject of assay [2] is primary AML patient samples. Description: Annexin V assay in primary AML samples. Particulars: 72 hours; incl. high-risk cytogenetics and molecular mutations.
Description: Bulk AML cells from AML patients and peripheral blood stem cells from healthy G-CSF-treated stem cell donors were isolated by Ficoll density centrifugation and apheresis, respectively. Isolated cells were maintained in IMDM supplemented with 10% FBS, or Myelocult H5100 (Stemcell Technologies, Vancouver, BC), supplemented with 100 ng/mL SCF, 10 ng/mL FLT3-L, 20 ng/mL IL-7, 10 ng/mL IL-3, 20 ng/mL IL-6, 20 ng/mL G-CSF, 20 ng/mL GM-CSF. Cells were supplemented with 100 μg/ml penicillin, and 100 U/ml streptomycin, at 37° C. and 5% CO2 in humidified atmosphere.
Assay [3] concerns ClpP interactors (SDHA, SDHB, NDUFA12) in OCI-AML3 cells. Put plainly: Immunoblot of respiratory chain complex subunits, OCI-AML3. Format: cell-based. Particulars: 24 hours, dose dependent. The method, then: Cells were lysed at a density of 1×10^6/50 μL (for AML cells) or 1×10^6/100 μL (for HCT116 cells) in protein lysis buffer (0.25 M Tris-HCl, 2% sodium dodecylsulfate, 4% β-mercaptoethanol, 10% glycerol, 0.02% bromophenol blue). Protein lysates for Oxphos cocktail antibodies were incubated for 30 min at room temperature, otherwise, at 95° C. for 5 min for denaturing (antibodies used are listed below). Immunoblot analysis was performed as reported previously (Ishizawa et al., 2016). Briefly, an equal amount of protein lysate was loaded onto a 10-12% SDS-PAGE gel (Bio-Rad), and quantitated using the Odyssey imaging system (LI-COR Biotechnology, Lincoln, Nebr.). Antibodies used: total OXPHOS rodent WB antibody cocktail, anti-SDHA, anti-SDHB, anti-NDUFA12, anti-ClpP, anti-ATF4, anti-eIF2α, anti-phospho-eIF2α (S51), anti-ClpP, anti-CQCRC2, anti-CS, anti-NDUFB8, anti-β-actin, and anti-GAPDH.
(In general: In western blotting, separated proteins are transferred to a membrane and probed.)

A further assay has as its target T1, recombinant D190A ClpP (Homo sapiens, UniProt Q16740, D190A).
T1 construct: SUMO fusion (pETSUMO2); made in house; host or cells: E. coli SG1146
Description: ClpP enzymatic assays, D190A ClpP. In kind it is biochemical. Particulars: peptide (AC-WLA-AMC) or protein (FITC-casein) substrates. The method, then: (§1) Hill coefficient was determined using Origin7, Pharmacology—Dose-response curve with log (compound concentration) as the independent variable.

The test system of assay [4] is CLPP+/+ T-REx HEK293 cells. Description: Alamar blue viability, CLPP+/+ T-REx HEK293. The following applies: CLPP+/+ (wild type) T-REx HEK293, 72 h. Background: Resazurin is reduced to fluorescent resorufin, in cell work by metabolically active cells.
Description: as §3
Assay [5] deals with endogenous ClpP in OCI-AML2 cells (Homo sapiens, UniProt Q16740). Particulars: 30 min, at concentrations associated with activation in enzymatic assays.
Sequence of endogenous ClpP in OCI-AML2 cells (Q16740 57-277): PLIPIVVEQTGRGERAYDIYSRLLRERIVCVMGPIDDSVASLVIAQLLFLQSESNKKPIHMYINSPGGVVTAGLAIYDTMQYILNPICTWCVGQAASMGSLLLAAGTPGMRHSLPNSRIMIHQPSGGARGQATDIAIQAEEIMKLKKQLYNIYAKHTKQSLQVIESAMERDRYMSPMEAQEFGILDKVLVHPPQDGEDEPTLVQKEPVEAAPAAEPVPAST
For assay [6], the system named is patient-derived xenograft AML cells (leukemia-initiating cells). Description: Engraftment of ex vivo treated patient-derived xenograft AML cells. The following applies: cells treated ex vivo with 250 nM for 36 hours, injected into NSG mice; untreated 36 days; p<0.0001. In kind it is in vivo. The method, then: (§2) Mice. For all the animal studies in the present study, the study protocols were approved by the Institutional Animal Care and Use Committee (IACUC) at the Princess Margaret Cancer Centre and MD Anderson Cancer Center. Two million Z138 cells transfected with the wild-type or D190A mutant CLPP-over-expressing vector and labeled with luciferase were injected to individual NSG mice (n=7 per treatment group, all female). After confirming engraftment measured by in vivo bioluminescence imaging on d 9 post-transplantation, ONC212 (50 mg/kg/d) or vehicle (water) is administered by oral gavage every other d until the mice got moribund. Tumor burden measured by luminescence was followed weekly until day 31. Independently, two million Z138 cells transfected with tetracycline-inducible Y118A mutant ClpP were labeled with luciferase and injected to individual NSG mice (n=10 per treatment group, all male). After confirming engraftment measured by in vivo bioluminescence imaging on day 5 post-transplantation, the mice were treated with or without tetracycline (2 mg/mL) in drinking water until moribund. One million OCI-AML2 cells were injected to individual SCID mice (n=10 per treatment group, all male). […]. Engraftment experiments using patient-derived xenograft AML cells were performed as previously reported (Ishizawa et al., 2016). […] The mice in each group were monitored for survival.

For assay [7], the system named is Z138 cells with WT ClpP overexpression. Description: Z138 xenograft, WT ClpP overexpression. In kind it is in vivo, mice. The following applies: WT ClpP group. The protocol:
as §2

Assay [8] has as its system OCI-AML2, OCI-AML3, TEX, Z138, HCT-116, HeLa, OC316 and SUM159 cells. Description: Growth and viability of leukemia, lymphoma and solid tumor cell lines. Particulars: tested cell lines; 72-hour exposure.
Description: as §3
The test system of assay [9] is Z138 cells with D190A ClpP overexpression. Description: Z138 xenograft, D190A ClpP overexpression. In kind it is in vivo, mice. The method, then: as §2
Assay [10] relates to CLPP−/− T-REx HEK293 cells. Description: Alamar blue viability, CLPP−/− T-REx HEK293. Particulars: 72 h.
Description: as §3
Assay [11] addresses T2, human ClpP (recombinant WT ClpP) (Homo sapiens, UniProt Q16740).
T2 construct: SUMO fusion (pETSUMO2); made in house; host or cells: E. coli SG1146
Description: ClpP enzymatic assays with fluorogenic substrates (cell-free). The following applies: for EC50: without ClpX. Format: biochemical. The protocol: as §1

The next assay concerns the target T3, ClpP (Homo sapiens, UniProt Q16740).
T3 construct: SUMO fusion (pETSUMO2); made in house; host or cells: E. coli SG1146
Description: Gel-based α-casein degradation by ClpP. In kind it is biochemical. Particulars: without ClpX; 3 h; SDS-PAGE.

Assay [12] concerns Z138 cells with tetracycline-inducible mutant ClpP (Y118A). Description: Z138 xenograft with tetracycline-inducible Y118A mutant ClpP. In kind it is in vivo. The following applies: tetracycline 2 mg/mL in drinking water induces Y118A ClpP; untreated 40 days; p<0.0001; NSG mice. The method, then: as §2
For another assay, the system named is OCI-AML2 cells. Put plainly: Alamar blue viability assay, OCI-AML2. Particulars: 72-hour exposure, read-out: IC50, growth and viability. Format: cell-based. The protocol:
[…]. After a 72-h period of incubation at 37° C., 10 μL of Alamar Blue was added to the culture medium and the mixture was incubated for an additional 2 h at 37° C. Cytotoxicity was measured using spectrophotometry of fluorescence at excitation 560 nm & emission 590 nm (SpectraMax M3, Molecular Devices, San Jose, Calif.). For apoptosis analysis, annexin V and PI binding assays were performed to assess apoptosis as described previously (Ishizawa et al., 2016). […]. Annexin V and PI were stained after 72 h incubation. Annexin V- and PI-negative cells were counted as live cells.

Setting [13] is: substrate FITC-casein, read-out: EC50, ClpP cleavage of FITC-casein.

T2 sequence (Q16740 57-277): as above
T3 sequence (Q16740 57-277): as above
T1 sequence (Q16740 57-277 D190A): as the sequence (Q16740 57-277) above, with D134A counted along it

With `COc1cccc2c1C(=O)c1c(O)c3c(c(O)c1C2=O)C[C@@](O)(C(=O)CO)C[C@@H]3O[C@H]1C[C@H](N)[C@H](O)[C@H](C)O1` [Adriamycin], in assay [1], the “sensitivity of ONC-R Z138 cells” value is reported as “retained similar sensitivity”.

For orientation: Hill coefficient means the slope factor of the fitted curve. The term EC50 denotes the midpoint of the concentration-response curve. For the compound `O=C1C2=C(CCN(Cc3ccccc3)C2)N2CCN=C2N1Cc1ccc(C(F)(F)F)cc1` [ONC212], the “sensitivity of ONC-R Z138 cells” value in [1] is listed as “cross-resistant”. Besides, in assay [2], the “apoptosis in primary AML patient samples” value is reported as “induced apoptosis”. Besides, the “level of identified ClpP interactors” value in [3] is given as “reduced the level”. For the same compound, the “activation of proteolytic activity of D190A ClpP” value on recombinant D190A ClpP was “could not activate”. In addition, the growth and viability result in assay [4] is “reduced the growth and viability”; in assay [10], “resistant”. For the same compound, the “binding to endogenous ClpP in cells” value in assay [5] is reported as “bound endogenous ClpP”. The median survival was found to be 82 days in assay [6]; 55 days in assay [7] (vehicle 49 days, p=0.008); 54 days in assay [9] (D190A mutant group, vehicle 53 days, p=0.40). In addition, the “tumor burden (luciferase, IVIS imaging)” value in assay [7] (50 mg/kg every other day, oral gavage, NSG mice) is on record as “significantly reduced”; in assay [9] (D190A ClpP group, 50 mg/kg every other day, oral gavage, NSG mice), “no discernable anti-tumor activity”. Further, in assay [8], the “IC50 values, growth and viability” value is listed as “nanomolar range”. In addition, in assay [11] (FITC-casein data, positive cooperativity), the Hill coefficient was 4.98±0.47. Moreover, in assay [11] (pre-incubation of ClpP with compound (0-60 min) did not increase activation), the mode of activation result is on record as “reversible (non-covalent)”. Besides, the EC50 worked out at 3.37 µM in assay [11] (read-out: EC50, ClpP cleavage of FAPHMALVPC (Clptide), substrate FAPHMALVPC (Clptide), read-out: EC50, ClpP cleavage of […] (Clptide)); 0.18 µM in assay [11] (substrate AC-WLA-AMC, read-out: EC50, ClpP cleavage of AC-WLA-AMC); 0.37 µM in assay [11] (substrate Ac-Phe-hArg-Leu-ACC, read-out: EC50, ClpP cleavage of Ac-Phe-hArg-Leu-ACC); 0.46 µM in assay [11] (setting [13]). On ClpP, the “degradation of α-casein by ClpP” value is “activated ClpP and induced cleavage of α-casein”.

On to `CC[C@]1(O)C[C@H]2CN(CCc3c([nH]c4ccccc34)[C@@](C(=O)OC)(c3cc4c(cc3OC)N(C=O)[C@H]3[C@@](O)(C(=O)OC)[C@H](OC(C)=O)[C@]5(CC)C=CCN6CC[C@]43[C@@H]65)C2)C1` [Vincristine], for which the “sensitivity of ONC-R Z138 cells” value in assay [1] is reported as “retained similar sensitivity”.

With `CN(C)[C@@H]1C(O)=C(C(N)=O)C(=O)[C@@]2(O)C(O)=C3C(=O)c4c(O)cccc4[C@@](C)(O)[C@H]3C[C@@H]12` [tetracycline], the median survival in [12] is listed as 48 days.

The term IC50 denotes the concentration that gives 50% inhibition. For the compound Acyldepsipeptide 1 [ADEP1], the “potency as ClpP activator (comparison)” value in assay [11] (ADEP1 versus ONC201 and ONC212) is “less potent”. Also, the “cleavage of non-ClpP substrate MCA-Pro-Leu-Gly-Pro-D-Lys (DNP)-OH” value in assay [11] (after activating ClpP) is given as “not cleaved”. The concentration giving a half-maximal response (EC50) in assay [11] (setting [13]) was determined as 21.3 µM. Further, the IC50 in the assay with OCI-AML2 cells is 50 µM.
